Assay results as given in patent publication US11390621B2, “Chiral indole compounds and their use” (ARIAGEN, INC., priority 2019, dated 2022).
Values joined by “and” are separate entries in the source; they are usually repeats but may differ in a detail not shown here. Identical values can stand only once. Like-named read-outs stand apart in the source and are kept apart here.

Assays:
[1] = In vivo pharmacokinetic studies in rats; design: species or system SD rats; details: rats; for AUC(0-t): read-out: AUClast; for Tmax: read-out: Tmax
Experimental: This example describes pharmacokinetic (PK) studies of ARI-164, ARI-165, ARI-186, ARI-224, and ARI-226 in mice and rats. In the present studies, the test compounds were given to groups of mice and/or rats (N=3 in each group), intravenously (IV) at 2 mg/kg or orally (PO) at 10, 30, or 40 mg/kg. ARI-186, ARI-224 and ARI-226 were given orally to rats QD for 5 days at 10 mg/kg to assess whether decreased susceptibility to CYP1A1/1A2 metabolism would lead to increased accumulation. IV doses were formulated in DMSO, while PO doses were formulated in a 50/50 mixture of PEG400 and Tween 80 (single dose mouse and rat studies for ARI-164, ARI-165, ARI-186, ARI-224, ARI-226) or PEG400/Kolliphor HS15/Oleic Acid 45/45/10 (ARI-164 repeat dose rat study). Blood samples were collected at pre-dose and over a period of 24 hours post-dose. Plasma concentrations of the test compounds were determined by HPLC.

[2] = tested on: EMT-6 cancer cells; assay: EMT-6 subcutaneous syngeneic mouse tumor model (Example 48); format: in vivo, BALB/C mice; details: 40 mg/kg, IP
Experimental: This example describes in vivo studies that evaluated the anti-cancer efficacy of ARI-143, ARI-164, ARI-165, and ARI-186 in syngeneic mouse tumor models. Mice implanted subcutaneously with EMT-6 or Pan02 cancer cells were treated with ARI-143, ARI-164, ARI-165, ARI-186, or vehicle controls, as described below.
A monolayer culture of tumor cells was maintained in vitro in DMEM or RPMI1640 medium supplemented with 10% fetal bovine serum at 37° C. in an atmosphere of 5% CO2. Cells in exponential growth phase were harvested and quantitated by cell counter before tumor inoculation. The cell lines used are described in the table below.
Two subcutaneous syngeneic mouse tumor models were generated by innoculating female BALB/C or C57BL/6 mice with cancer cells at their right lower or front flank as detailed in the table below:
Each mouse was inoculated subcutaneously with tumor cells in 0.1 mL of PBS. Treatments were started when the mean tumor size reached approximately 80-120 mm^3 (around 100 mm^3). The administration of the test compounds and the animal number in each study group are shown in the study design. The date of tumor cell inoculation was denoted as day 0.
ARI-143, ARI-164, and ARI-165 were dissolved in DMSO at the final concentration of 26.7 mg/ml and stored at room temperature. In Pan02 studies of ARI-164 and ARI-186, both compounds were dissolved in 100% PEG400.
Randomization of animals was started when the mean tumor size reached approximately 90 mm^3 to form the mouse study groups. The randomization was-performed based on “Matched distribution” method using the multi-task method (StudyDirector™ software, version 3.1.399.19)/randomized block design. The mouse groups (ten in each group) were treated with vehicle (DMSO or PEG400) or the test compounds at a dose of 26-80 mg/kg by intraperitoneal (i.p.). injection, QD for 28 days or longer.
After tumor cell inoculation, the mice were checked daily for morbidity and mortality. During routine monitoring, the mice were checked for tumor growth and any effects of the treatment on behavior such as mobility, food and water consumption, body weight gain/loss (body weights were measured twice per week after randomization), eye/hair matting, and any other abnormalities. Mortality and observed clinical signs were recorded for individual mice in detail.
Tumor volumes were measured twice per week in two dimensions using a caliper, and the volume was expressed in mm^3 using the formula: V=(L×W×W)/2, where V is tumor volume, L is tumor length (the longest tumor dimension) and W is tumor width (the longest tumor dimension perpendicular to L). Dosing as well as tumor and body weight measurements was conducted in a Laminar Flow Cabinet. The body weights and tumor volumes were measured by using StudyDirector™ software (version 3.1.399.19). Dosing Holiday
Tumor growth inhibition percentage (TGI %) is an indicator for antitumor activity of a drug compound, and expressed as: TGI(%)=100×(1−T/C), where T and C are the mean tumor volume (or weight) of the treated and control groups, respectively, on a given day. Statistical analysis of the difference in mean tumor volume (MTV) among the groups was conducted using the data collected on the day when the MTV of the vehicle group reached the humane endpoints, so that TGI could be derived for all or most mice enrolled in the study.

[3] = SD, rat, plasma, iv, 2 mg/kg, single 2 mg/kg IV dose, Mean of 3 animals
[4] = SD, rat, plasma, iv, 2 mg/kg, single 2 mg/kg IV dose, individual animal
[5] = Sprague-Dawley (SD), rat, plasma, iv, 2 mg/kg, single 2 mg/kg IV dose, Mean of 3 animals
[6] = Sprague-Dawley (SD), rat, plasma, po, 10 mg/kg, single 10 mg/kg PO dose, Mean of 3 animals
[7] = Sprague-Dawley (SD), rat, plasma, po, 10 mg/kg, single 10 mg/kg PO dose, individual animal
[8] = single 2 mg/kg IV dose, individual animal, 2 mg/kg
[9] = single 10 mg/kg PO dose, individual animal, 10 mg/kg

AUC(0-inf) [1, 3]: 12800 ng·h/mL | clearance [1, 3]: 5.38 mL/min/kg | AUC(0-t) [1, 3]: 12600 ng·h/mL | MRT inf [1, 4]: 0.81 h | MRT last [1, 4]: 0.79 h | Tmax [1, 4]: 0.083 h | MRT inf [1, 5]: 1.11 h | MRT last [1, 5]: 0.959 h | half-life [1, 5]: 1.33 h | Cmax ([1]; Sprague-Dawley (SD), rat, plasma, iv, 2 mg/kg, single 2 mg/kg IV dose, Mean of 3 animals, read-out: Cmax): 19200 ng/mL | Tmax [1, 5]: 0.083 h | Vd ([1]; Sprague-Dawley (SD), rat, plasma, iv, 2 mg/kg, single 2 mg/kg IV dose, Mean of 3 animals, read-out: Vss): 0.32 L/kg | AUC(0-inf) [1, 6]: 4310 ng·h/mL | MRT inf [1, 6]: 3.08 h | MRT last [1, 6]: 2.82 h | half-life [1, 6]: 1.09 h | AUC(0-t) [1, 6]: 4160 ng·h/mL | Cmax ([1]; Sprague-Dawley (SD), rat, plasma, po, 10 mg/kg, single 10 mg/kg PO dose, Mean of 3 animals, read-out: Cmax): 1120 ng/mL | Tmax [1, 6]: 2 h | AUC(0-inf) [1, 7]: 4680 ng·h/mL | MRT inf [1, 7]: 3.41 h | MRT last [1, 7]: 2.71 h | AUC(0-t) [1, 7]: 4260 ng·h/mL | Cmax ([1]; Sprague-Dawley (SD), rat, plasma, po, 10 mg/kg, single 10 mg/kg PO dose, individual animal, read-out: Cmax): 1250 ng/mL | Tmax [1, 7]: 2 h | bioavailability ([1]; Sprague-Dawley (SD), rat, plasma, 10 mg/kg PO vs 2 mg/kg IV, read-out: F (Bioavailability)): 6.73% | MRTinf [1, 8]: 1.61 h and 0.91 h | MRTlast [1, 8]: 1.28 h and 0.8 h | T1/2 [1, 8]: 1.07 h and 2.11 h and 0.83 h | Vss [1, 8]: 0.0832 L/kg and 0.198 L/kg and 0.677 L/kg | AUCinf [1, 9]: 4650 ng·h/mL and 3620 ng·h/mL | AUClast [1, 9]: 4640 ng·h/mL and 3560 ng·h/mL | Cmax [1, 9]: 1070 ng/mL and 1040 ng/mL | MRTinf [1, 9]: 3.12 h and 2.71 h | MRTlast [1, 9]: 3.12 h and 2.64 h | T1/2 [1, 9]: 1.87 h and 0.541 h and 0.87 h
SMILES: CC[C@@H](O)c1csc(C(=O)c2c[nH]c3cc(F)ccc23)n1 [ARI-165, (R)-(6-Fluoro-1H-indol-3-yl)(4-(1-hydroxypropyl)thiazol-2-yl)methanone]
AUCinf [1, 8]: 19500 ng·h/mL and 16300 ng·h/mL and 2690 ng·h/mL | AUClast [1, 8]: 19500 ng·h/mL and 15700 ng·h/mL and 2620 ng·h/mL | Cl [1, 8]: 1.72 mL/min/kg and 2.05 mL/min/kg and 12.4 mL/min/kg | Cmax [1, 8]: 36500 ng/mL and 17100 ng/mL and 3880 ng/mL | TGI ([2]; study day 6): 0.0% | TGI ([2]; study day 10): −7.9% | TGI ([2]; study day 13): −8.6% | TGI ([2]; study day 17): 14.5% | TGI ([2]; study day 20): 23.1% | TGI ([2]; study day 24): 25.8% | TGI ([2]; study day 27): 12.5% | TGI ([2]; study day 31): 9.1%
